The test system of assay [1] is mesenchymal stem cells. Kind of assay: Mesenchymal stem cell proliferation. Particulars: FIG. 1A. In kind it is cell-based.
In assay [2] the test system is ESC-NSCs. As to the kind of experiment: Neural stem cell proliferation, ATP assay (CellTiterGlo). The class given is cell-based, human. Particulars: ATP assay after four days, FIG. 1A. The method, then:
Embryonic stem cell-derived neural stem cells (ESC-NSCs) were generated as previously described using dual SMAD inhibition protocol (Chambers et al., 2009). NSCs were cultured on POL coated plates at 37° C., 5% CO2 in N2B27 supplemented with bFGF (10 ng/ml), EGF (10 ng/ml), BDNF (20 ng/ml). For Compound B identification, NSCs were seeded on POL coated plates at 21000 cells/cm^2 in N2B27. After cell attachment (4 h), compounds were added at indicated concentrations. Negative control cells were treated with DMSO. Cells were incubated for four days and subsequently the amount of ATP was determined using the CellTiterGlo® kit (Promega) according to the manufacturer's instructions.
For orientation: ATP-based viability assays read luminescence as a measure of living cells.

Assay [3] has as its system fibroblast-derived secondary spheres. Kind of assay: Attachment of secondary spheres to laminin substrate (POL). In kind it is cell-based, human. Particulars: two hours after plating on POL; FIG. 6. On the procedure: • [3R,4R]-N-{4-[4-(2-Fluoro-6-hydroxy-3-methoxy-benzoyl)-benzoyl amino]-azep+an-3-yl}-4-hydroxy-3,5-dimethyl-benzamide hydrochlorid All growth factors were from R&D systems if not indicated otherwise. To compare effects of other inhibitors, Compound B was replaced by 2 μM Dorsomorphin, 10 uM H89 (Tocris), 10 μM Y27632, or 10 μM GSK650394 (Tocris), respectively. After four days, spheres were dissociated with Accutase and single cells were seeded in low attachment plates in NSC medium supplemented with inhibitor mix comprising 500 ng/ml Noggin (peprotech), 10 μM SB431452 (Tocris), and 1 μM CP21 (Roche). After 3 days, secondary spheres were seeded on polyornithine-laminin (POL) coated dishes. After attachment (24 hours), medium was replaced with differentiation medium comprising N2B27 (1:1 DMEM/F12 and Neurobasal with beta-mercaptoethanol (50 μM), B27 supplement without vitamin A (1:50, Invitrogen), and N2 supplement (1:100, Invitrogen)) supplemented with antibiotics, BDNF (20 ng/ml), GDNF (20 ng/ml), Laminin ([…]), Ascorbic Acid (0.2 mM) and dibutyryl-cAMP (0.5 mM, Sigma). Every other day, 50% of medium was exchanged. For the first seven days of differentiation, medium was supplemented with the inhibitor mix.

Assay [4] deals with T1, PKA (Homo sapiens, UniProt P17612).
T1 construct: purchased Caliper (PerkinElmer) ProfilerPro Kinase Kits
As to the kind of experiment: Kinase selectivity profiling (ProfilerPro Kinase Kits). In kind it is biochemical. Particulars: FIG. 1C. On the procedure: (§1) Kinase Selectivity Profiling Kinase selectivity profiling was performed using ProfilerPro Kinase Kits from Caliper (PerkinElmer) according to the manufacturer's instructions.

Assay [5] has as its target T2, PKGa (Homo sapiens, UniProt Q13976).
T2 construct: purchased Caliper (PerkinElmer) ProfilerPro Kinase Kits
T2 sequence (Q13976 1-671): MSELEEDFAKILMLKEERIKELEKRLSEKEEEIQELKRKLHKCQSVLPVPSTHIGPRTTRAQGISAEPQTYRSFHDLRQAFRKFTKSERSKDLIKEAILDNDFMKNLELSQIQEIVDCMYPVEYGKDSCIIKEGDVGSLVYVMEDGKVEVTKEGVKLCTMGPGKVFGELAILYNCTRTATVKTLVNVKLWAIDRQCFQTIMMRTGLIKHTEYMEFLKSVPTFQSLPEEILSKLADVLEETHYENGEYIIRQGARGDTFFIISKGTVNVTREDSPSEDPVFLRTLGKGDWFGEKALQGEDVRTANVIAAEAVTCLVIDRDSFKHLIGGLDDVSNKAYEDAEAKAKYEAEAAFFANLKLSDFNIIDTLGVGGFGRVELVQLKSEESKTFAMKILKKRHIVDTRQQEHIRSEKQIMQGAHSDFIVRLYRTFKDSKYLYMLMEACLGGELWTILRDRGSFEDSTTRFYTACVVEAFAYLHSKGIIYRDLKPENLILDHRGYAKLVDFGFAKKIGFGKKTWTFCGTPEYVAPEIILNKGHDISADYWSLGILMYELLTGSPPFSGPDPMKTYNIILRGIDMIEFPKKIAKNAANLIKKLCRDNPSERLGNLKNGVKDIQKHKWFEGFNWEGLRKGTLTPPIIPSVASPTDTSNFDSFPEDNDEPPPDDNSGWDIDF
The assay is described as above. In kind it is biochemical. Particulars: FIG. 1C. The method, then: as §1

Assay [6] addresses T3, SGK1 (Homo sapiens, UniProt O00141).
T3 construct: purchased Caliper (PerkinElmer) ProfilerPro Kinase Kits
T3 sequence (O00141 1-431): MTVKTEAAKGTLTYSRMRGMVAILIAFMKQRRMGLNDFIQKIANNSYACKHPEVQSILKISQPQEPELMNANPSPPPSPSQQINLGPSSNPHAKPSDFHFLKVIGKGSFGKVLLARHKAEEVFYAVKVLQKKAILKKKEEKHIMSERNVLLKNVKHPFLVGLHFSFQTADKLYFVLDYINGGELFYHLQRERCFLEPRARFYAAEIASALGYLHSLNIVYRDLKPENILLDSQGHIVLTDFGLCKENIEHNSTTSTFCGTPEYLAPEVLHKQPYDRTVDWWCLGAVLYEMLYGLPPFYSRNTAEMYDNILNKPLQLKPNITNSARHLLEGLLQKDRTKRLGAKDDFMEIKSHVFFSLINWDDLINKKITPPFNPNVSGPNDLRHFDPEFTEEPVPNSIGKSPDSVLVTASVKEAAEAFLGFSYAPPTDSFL
The assay is described as above. In kind it is biochemical. The settings on record: FIG. 1C. On the procedure:
as §1

Assay [7] addresses T4, ROCK2 (Homo sapiens, UniProt O75116).
T4 construct: purchased Caliper (PerkinElmer) ProfilerPro Kinase Kits
Described as above. The class given is biochemical. The settings on record: FIG. 1C. The method, then:
as §1

In assay [8] the target is T5, MSK1 (Homo sapiens, UniProt O75582).
T5 construct: purchased Caliper (PerkinElmer) ProfilerPro Kinase Kits
T5 sequence (O75582 whole entry, species assumed): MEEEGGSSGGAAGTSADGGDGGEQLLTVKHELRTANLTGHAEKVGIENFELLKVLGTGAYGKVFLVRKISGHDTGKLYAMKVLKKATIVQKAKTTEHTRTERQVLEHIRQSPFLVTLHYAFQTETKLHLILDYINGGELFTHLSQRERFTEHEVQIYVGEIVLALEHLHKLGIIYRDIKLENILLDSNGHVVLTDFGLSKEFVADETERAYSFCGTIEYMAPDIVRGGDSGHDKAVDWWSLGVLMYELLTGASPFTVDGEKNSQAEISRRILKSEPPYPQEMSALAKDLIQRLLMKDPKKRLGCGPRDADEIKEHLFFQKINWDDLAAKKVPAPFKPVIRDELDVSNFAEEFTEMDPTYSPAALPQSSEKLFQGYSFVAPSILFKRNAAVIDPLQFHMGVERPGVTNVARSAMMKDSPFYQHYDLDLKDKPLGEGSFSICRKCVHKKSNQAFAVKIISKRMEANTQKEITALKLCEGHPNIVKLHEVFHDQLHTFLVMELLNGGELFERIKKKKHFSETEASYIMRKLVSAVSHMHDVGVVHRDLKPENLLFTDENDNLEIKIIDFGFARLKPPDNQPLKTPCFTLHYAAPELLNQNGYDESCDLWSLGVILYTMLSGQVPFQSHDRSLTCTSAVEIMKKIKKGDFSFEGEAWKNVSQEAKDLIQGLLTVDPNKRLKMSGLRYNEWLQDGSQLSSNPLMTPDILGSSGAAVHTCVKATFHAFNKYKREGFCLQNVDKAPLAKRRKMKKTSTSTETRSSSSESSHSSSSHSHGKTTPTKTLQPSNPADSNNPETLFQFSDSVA
The description is as above. Particulars: FIG. 1C. The class given is biochemical. On the procedure:
as §1

The test system of assay [9] is AMPK. The description is as above. In kind it is biochemical. Particulars: FIG. 1C. On the procedure: as §1
Assay [10] has as its system SCC058 foreskin fibroblasts. Kind of assay: Sphere formation assay of fibroblasts in suspension culture. The class given is cell-based, human. Particulars: day 3, FIG. 1B, 1D. On the procedure:
SCC058 foreskin fibroblasts (Millipore) were cultured at 37° C. and 5% CO2 in low serum FibroGro (Millipore). For conversion, 7300 cells/cm^2 were seeded in fibroblast medium containing 1 mM Valproic acid (VPA, Sigma). Then, cells were treated for two days with 1 mM VPA, and 6 μg/ml polybrene (Millipore) and subsequently transferred to low attachment plates in NSC medium for sphere formation. NSC medium consisted of NeuroCult NS-A proliferation medium (StemCell Technologies) supplemented with Penicillin/streptomycin, bFGF (20 ng/ml), EGF (20 ng/ml), BDNF (20 ng/ml), Heparin (2 μg/ml), D114 (500 ng/ml), Jagged1 (500 ng/ml), SHH (500 ng/ml, peprotech), Ascorbic Acid (0.2 mM, Sigma), FGF8a (100 ng/ml), 10% NSC-CM (medium conditioned by ESC-NSCs), and Compound B (2 μM, Roche).
• [3R,4R]-N-{4-[4-(2-Fluoro-6-hydroxy-3-methoxy-benzoyl)-benzoyl amino]-azep+an-3-yl}-4-hydroxy-3,5-dimethyl-benzamide hydrochlorid All growth factors were from R&D systems if not indicated otherwise. To compare effects of other inhibitors, Compound B was replaced by 2 μM Dorsomorphin, 10 uM H89 (Tocris), 10 μM Y27632, or 10 μM GSK650394 (Tocris), respectively. After four days, spheres were dissociated with Accutase and single cells were seeded in low attachment plates in NSC medium supplemented with inhibitor mix comprising 500 ng/ml Noggin (peprotech), 10 μM SB431452 (Tocris), and 1 μM CP21 (Roche).

T4 sequence (O75116 whole entry, species assumed): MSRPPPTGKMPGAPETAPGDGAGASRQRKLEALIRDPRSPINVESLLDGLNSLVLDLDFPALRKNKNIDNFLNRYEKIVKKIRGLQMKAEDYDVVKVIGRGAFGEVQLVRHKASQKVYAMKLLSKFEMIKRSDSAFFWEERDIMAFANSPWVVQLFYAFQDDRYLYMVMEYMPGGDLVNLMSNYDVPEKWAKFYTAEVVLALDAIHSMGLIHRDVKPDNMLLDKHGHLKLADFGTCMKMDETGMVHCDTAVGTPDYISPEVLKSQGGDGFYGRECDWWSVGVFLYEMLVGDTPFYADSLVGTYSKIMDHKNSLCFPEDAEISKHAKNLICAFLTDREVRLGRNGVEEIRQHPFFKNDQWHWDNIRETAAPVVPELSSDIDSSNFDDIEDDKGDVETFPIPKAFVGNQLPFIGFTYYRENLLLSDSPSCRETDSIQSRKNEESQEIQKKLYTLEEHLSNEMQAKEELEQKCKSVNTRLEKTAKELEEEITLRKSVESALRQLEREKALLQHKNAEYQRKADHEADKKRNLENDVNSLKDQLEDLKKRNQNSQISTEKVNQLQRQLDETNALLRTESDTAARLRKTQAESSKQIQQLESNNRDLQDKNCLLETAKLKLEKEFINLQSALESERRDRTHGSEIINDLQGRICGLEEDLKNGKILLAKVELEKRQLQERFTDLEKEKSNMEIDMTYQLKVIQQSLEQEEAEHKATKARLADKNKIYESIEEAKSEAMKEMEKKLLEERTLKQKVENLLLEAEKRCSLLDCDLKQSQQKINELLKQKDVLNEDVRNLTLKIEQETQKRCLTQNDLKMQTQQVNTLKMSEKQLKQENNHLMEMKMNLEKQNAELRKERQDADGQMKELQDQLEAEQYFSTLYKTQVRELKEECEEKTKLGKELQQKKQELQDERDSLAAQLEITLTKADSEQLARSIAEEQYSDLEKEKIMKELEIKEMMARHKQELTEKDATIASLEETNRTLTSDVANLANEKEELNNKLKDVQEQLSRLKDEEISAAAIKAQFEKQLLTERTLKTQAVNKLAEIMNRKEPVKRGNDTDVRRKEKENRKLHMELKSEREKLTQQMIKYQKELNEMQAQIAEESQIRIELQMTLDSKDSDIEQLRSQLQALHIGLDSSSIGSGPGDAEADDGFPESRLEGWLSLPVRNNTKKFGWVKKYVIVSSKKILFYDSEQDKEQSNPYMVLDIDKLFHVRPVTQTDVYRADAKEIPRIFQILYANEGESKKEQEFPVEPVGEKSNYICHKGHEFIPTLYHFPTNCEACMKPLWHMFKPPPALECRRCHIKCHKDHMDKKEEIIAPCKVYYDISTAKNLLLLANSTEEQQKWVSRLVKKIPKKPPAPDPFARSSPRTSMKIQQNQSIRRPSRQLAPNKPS

In the case of `COc1ccc(O)c(C(=O)c2ccc(C(=O)N[C@@H]3CCCNC[C@H]3NC(=O)c3cc(C)c(O)c(C)c3)cc2)c1F.Cl` [Compound B, N-{(3R,4R)-4-[4-(2-Fluoro-6-hydroxy-3-methoxy-benzoyl)-benzoylamino]-azepan-3-yl}-4-hydroxy-3,5-dimethyl-benzamide], the “effect on mesenchymal stem cells (proliferation)” value in [1] is listed as “no effect”. Besides, in [2], the “proliferation of neural stem cells” value was “promoted proliferation of ESC-NSCs in a dose-dependent manner”. Besides, the “attachment and migration of spheres on laminin substrate” value in [3] is “have attached and started to migrate”. Moreover, the “inhibition of PKA” value in [4] is listed as “over 80%”. In assay [5], the “inhibition of PKGa” value is reported as “over 80%”. Further, in assay [6], the “inhibition of SGK1” value was “over 80%”. Also, the “inhibition of ROCK2” value in assay [7] was “over 80%”. Besides, the “inhibition of MSK1” value in assay [8] is “over 80%”. For the same molecule, the “inhibition of AMPK” value in [9] is reported as “over 80%”. Moreover, in assay [10], the sphere size entry is “significant increase” and the “total cell number in suspension culture” value was “significant increase”.
Consider `C[C@@H](N)[C@H]1CC[C@H](C(=O)Nc2ccncc2)CC1` [Compound Y27142, reference compound], for which the sphere size entry in assay [10] is “increase in sphere size, albeit not at the same extent as Compound B”.
Same read-out and setting: with `O=S(=O)(NCCNC/C=C/c1ccc(Br)cc1)c1cccc2cnccc12` [Compound H89, reference compound] the entry was “increase in sphere size, albeit not at the same extent as Compound B”.

(Values after patent US10724000B2, “Small molecule based conversion of somatic cells into neural crest cells” (Hoffmann-La Roche Inc., priority 2013, dated 2020).)
